Reference: publication PMC4644980, “The FDA-approved natural product dihydroergocristine reduces the production of the Alzheimer’s disease amyloid-β peptides” (Scientific Reports, 2015)
“And” between values parts separate entries of the source, which are not always exact repeats. Identical values can stand only once. Counter-ions that a name gives are not always drawn.

Tests used:
[1] = tested on: γ-secretase subunits (mNCT, PS1-NTF); assay: Western blot of γ-secretase subunits in HEK293 or fibroblast cells; assay type: cell-based
Procedure: for 10 min before adding 25 µl of the stop solution. The fluorescence was monitored with a microplate reader (emission at 590 nm after excitation at 560 nm).
Western blot and antibodies
WT HEK293 or fibroblast cells were collected and lysed in 1% Nonidet P-40-HEPES buffer, and equal amounts of proteins [normalized by BCA (Pierce)] were separated by SDS-PAGE onto a 12% Tris-glycine gel, transferred onto a PVDF membrane (Bio-Rad, USA) and further probed with antibody CT15 (for APP/APP-CTFs, 1:2000, […]
(1:1000; Abcam, Cambridge, MA, USA) for PS1-NTF, UD-1 (for Pen-2, 1:500; a gift of Dr. Helena Karlström, Karolinska Institute, Sweden), NCT164 (for NCT, 1:1000; BD Bioscience, Bedford, MA, USA) as well as with an antibody for β-actin (1:2000, Abmart). For the analysis of Notch NICD, cell extracts were separated by SDS-PAGE onto a 10% Tris-glycine gel, transferred onto a PVDF membrane and blotted for NICD with an anti-Notch Ab1744 antibody (for the free N-terminus of NICD, 1:500, Cell Signaling Technology, Beverly, MA, USA).
Samples from in vitro γ-secretase activity assays were run on 16% Tricine-SDS-PAGE gels and transferred onto PVDF to detect Aβ and AICD-Flag with 6E10 (1:1000, Covance, Berkeley, CA, USA) and CT15 antibodies (1:5000, Sigma-Aldrich), […]

γ-secretase = γ-secretase (Homo sapiens, UniProt P49768+Q92542); assay: cell-based luciferase reporter assay for γ-secretase inhibition (T100 cells); design: endogenous in cells; host or cells: T-REx HeLa cells (T100) stably transfected with the substrate C99-Gal4-VP16 and a luciferase reporter; conditions: 24 h, read-out: IC50 for inhibiting the activity of γ-secretase in T100 cells
Procedure: To identify natural product-based bioactive inhibitors of γ-secretase, we screened 417 natural products by using a cell-based luciferase reporter assay for γ-secretase inhibition (T100, see Methods), which we recently developed in TREx HeLa cells according to the methodology described in ref. [17]. […] Thus, this assay is sufficiently sensitive to detect the inhibitory effects of 100 nM DAPT on cellular γ-secretase activity. Additionally, this new cell-based assay tolerated up to 2% DMSO, which is a great advantage when screening inhibitors in a high-throughput format.
T-REx-HeLa cells (T100) stably overexpressing C99-Gal4-VP16 and luciferase were generated according to the method described in refs [17],[30]. For details, see Supplementary Information.
Cell-based γ-secretase assays were performed using the T100 cell line according to the methods detailed in ref. [30] (for details, see Supplementary information). […]
concentrations of substrate at 37 °C for 4 h, after which the enzymatic reactions were stopped by adding 0.5% SDS (final concentration). The samples were analyzed by Western Blot for AICD-Flag or Aβ. […]

In the case of `CC(C)[C@@]1(NC(=O)[C@@H]2C[C@@H]3c4cccc5[nH]cc(c45)C[C@H]3N(C)C2)O[C@@]2(O)[C@@H]3CCCN3C(=O)[C@H](Cc3ccccc3)N2C1=O` [DHEC, Dihydroergocristine methanesulfonate salt], the “assembly and maturation of the protease complex (mNCT, PS1-NTF)” value [1] is reported as “not altered” and the IC50 (γ-secretase) is reported as 20 µM and ~25 µM.
